# Laboratory results as given in ChEMBL document CHEMBL1148640, “Biological evaluation, chelation, and molecular modeling studies of novel metal-chelating inhibitors of NF-kappaB-DNA binding: structure activity relationships” (J Med Chem, 2006).
# Tested on: Radical scavenging activity
# Assay: Inhibition of superoxide radical scavenging activity
# Format: functional
row,IC50 [µM],SMILES
1,51.5,O=c1c(Br)cc2c(-c3ccccc3S(=O)(=O)O)c3cc(Br)c(O)c(O)c3oc-2c1O [BROMOPYROGALLOL RED]
2,> 250,CC1=C/C(=C(/c2cc(C)c(O)c(C(=O)O)c2)c2ccccc2S(=O)(=O)O)C=C(C(=O)O)C1=O [ERIOCHROME CYANINE R]

# More lines, now with the values behind:
row,SMILES,IC50 [µM]
1,CC1=C/C(=C(/c2cc(C)c(O)c(C(=O)O)c2)c2c(Cl)ccc(S(=O)(=O)O)c2Cl)C=C(C(=O)O)C1=O [CHROME AZUROL S],> 250
2,O=C1C=C/C(=C(/c2ccc(O)c(O)c2)c2ccccc2S(=O)(=O)O)C=C1O [PYROCATECHOL VIOLET],120
3,O=c1ccc2c(-c3ccccc3S(=O)(=O)O)c3ccc(O)c(O)c3oc-2c1O [PYROGALLOL RED],88
